From US9604981B2, “IP receptor agonist heterocyclic compounds” (Novartis AG, priority 2013, dated 2017)

Biological target: T1, IP receptor (Homo sapiens, UniProt P43119)
T1 construct: expressed in transfected cells; host or cells: CHO cells (CHO-IP)
Assay: cAMP accumulation in CHO cells stably expressing the IP receptor (AlphaScreen)
Assay type: cell-based
Conditions: 1 hour at room temperature
Protocol: Activity of compounds at the IP receptor (IP receptor) is assessed by measuring cAMP accumulation in CHO cells stably expressing the IP receptor (CHO-IP) using the PerkinElmer AlphaScreen assay. This technology measures the endogenous production of cAMP, in a non-radioactive luminescence proximity homogenous assay. A biological reaction occurs between streptavidin coated donor beads, biotinylated cAMP and anti-cAMP acceptor beads, bringing the donor and acceptor beads close enough together so that upon excitation a fluorescence signal is produced. On production of endogenous cAMP, competition between the biotinylated cAMP and cellular-derived cAMP causes a reduction in the fluorescent signal. The reduction in signal is proportional to the amount of cAMP being produced, thus it is possible to quantify the amount of cAMP being produced on stimulation with agonist.
Test and reference compounds are prepared at 100× [final] in 100% DMSO, and diluted 1:3 using a Biomek Fx (Beckman Coulter). This is followed by an intermediate dilution to give 5× [final] in assay buffer (HBSS containing 5 mM HEPES, 0.1% (w/v) BSA). […] The assay plate is then incubated at room temperature in the dark, for 60 minutes with gentle shaking, and read on the Envision plate reader (Perkin Elmer). […]

T1 sequence (P43119 whole entry): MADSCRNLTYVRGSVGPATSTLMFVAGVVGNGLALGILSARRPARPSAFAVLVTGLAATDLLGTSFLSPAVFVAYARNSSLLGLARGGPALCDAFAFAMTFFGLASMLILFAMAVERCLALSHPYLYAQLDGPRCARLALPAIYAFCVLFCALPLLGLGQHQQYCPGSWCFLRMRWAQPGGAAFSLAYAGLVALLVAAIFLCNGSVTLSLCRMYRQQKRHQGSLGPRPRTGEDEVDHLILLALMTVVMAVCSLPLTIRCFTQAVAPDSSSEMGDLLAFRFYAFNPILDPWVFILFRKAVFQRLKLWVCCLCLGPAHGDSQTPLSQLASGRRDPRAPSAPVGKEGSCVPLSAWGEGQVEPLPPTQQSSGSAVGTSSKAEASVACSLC

EC50: 0.455 nM
SMILES: Cc1ccc(-c2cc3c(nc2-c2ccc(C)cc2)CCCN3CCCCCCC(=O)O)cc1 [Example 1, 7-(6,7-Di-p-tolyl-3,4-dihydro-1,5-naphthyridin-1(2H)-yl)heptanoic acid]
